Experimental data taken from patent publication US20210261538A1, “PROTEIN ARGININE METHYLTRANSFERASE 5 (PRMT5) DEGRADATION / DISRUPTION COMPOUNDS AND METHODS OF USE” (ICAHN SCHOOL OF MEDICINE AT MOUNT SINAI, priority 2018, published 2021).

What was measured:
MCF-7 cells = test: Cell proliferation assay (Cell-Titer Glo) in MCF-7 cells; assay type: cell-based; conditions: 5 μM, 10 days
Description: The same starting number of MCF-7 cells were treated with DMSO, 5 μM EPZ015666 or YS43-22 for up to 10 days. Every two days, fresh compounds were constituted in DMEM medium and added to the cell culture. Relative cell numbers were counted every two days (i.e. day 0, 2, 4, 6, 8 and 10) using Cell-Titer Glo kit (Promega). MCF-7 cells were treated with DMSO, EPZ015666 (5 μM), or YS43-22 (5 μM) for 10 days.

cancer cells = conditions: EPZ015666 alone (Jin, 2016; Kryukov, 2016); cited from earlier work
MTAP-deleted cells = conditions: cited from earlier work
PRMT5 = PRMT5 (Homo sapiens, UniProt O14744); test: Western blot of PRMT5 protein levels in MCF-7 cells; assay type: cell-based; parameters: endogenous in cells; host or cells: MCF-7; conditions: for suppressing PRMT5 expression: MCF-7 cells (Examples 90-92)
Chain of PRMT5 (O14744 whole entry): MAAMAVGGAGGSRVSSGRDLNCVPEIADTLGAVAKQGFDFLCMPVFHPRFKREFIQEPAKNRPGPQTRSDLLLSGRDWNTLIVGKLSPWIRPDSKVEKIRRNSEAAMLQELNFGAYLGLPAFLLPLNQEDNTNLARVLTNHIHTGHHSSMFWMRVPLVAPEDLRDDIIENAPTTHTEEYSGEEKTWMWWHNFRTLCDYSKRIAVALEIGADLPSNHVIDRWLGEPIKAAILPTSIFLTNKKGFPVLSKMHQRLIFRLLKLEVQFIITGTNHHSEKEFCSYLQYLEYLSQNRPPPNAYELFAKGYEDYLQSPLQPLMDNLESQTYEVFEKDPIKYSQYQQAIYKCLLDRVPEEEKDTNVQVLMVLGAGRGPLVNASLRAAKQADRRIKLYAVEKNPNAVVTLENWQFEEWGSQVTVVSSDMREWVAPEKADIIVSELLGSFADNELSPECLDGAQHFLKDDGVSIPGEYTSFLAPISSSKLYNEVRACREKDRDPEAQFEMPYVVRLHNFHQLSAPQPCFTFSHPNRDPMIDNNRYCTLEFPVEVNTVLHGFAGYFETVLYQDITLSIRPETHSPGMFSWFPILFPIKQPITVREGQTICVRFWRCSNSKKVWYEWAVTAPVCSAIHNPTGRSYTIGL
Chain of PRMT5 (Q9BQA1 whole entry partner): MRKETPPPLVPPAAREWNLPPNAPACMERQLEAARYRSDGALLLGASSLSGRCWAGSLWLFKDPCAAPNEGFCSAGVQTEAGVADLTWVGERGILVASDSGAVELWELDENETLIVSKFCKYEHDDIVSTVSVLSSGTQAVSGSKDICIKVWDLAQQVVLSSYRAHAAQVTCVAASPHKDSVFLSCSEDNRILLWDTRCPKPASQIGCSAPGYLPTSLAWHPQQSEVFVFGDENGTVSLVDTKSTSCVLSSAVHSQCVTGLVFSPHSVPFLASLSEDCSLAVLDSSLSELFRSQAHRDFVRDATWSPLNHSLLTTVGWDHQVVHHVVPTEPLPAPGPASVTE
Description: MCF-7 cells, HEK293T cells and HeLa cells were cultured in Dulbecco's Modified Eagle Medium (DMEM) supplemented with 10% fetal bovine serum (FBS) in 5% CO2 at 37° C. Jurkat cells were cultured in RPMI 1640 medium supplemented with 10% FBS in 5% CO2 at 37° C. H2171 cells were cultured in HITES medium supplemented with 10% FBS in 5% CO2 at 37° C. HCT116 were cultured in McCoy's 5A medium supplemented with 10% fetal bovine serum (FBS) in 5% CO2 at 37° C. All the cells lines were treated with 5 μM (or indicated concentration) of PRMT5 inhibitor (EPZ015666) or degraders, or equivalent volume of DMSO for 6 days (or indicated time points). Fresh compounds were constituted in medium and used for every 2 days. The antibodies used in this study are: PRMT5 antibody (Active Motif), (3-actin antibody (Sigma), SDMA antibody (collaboration with Cell Signaling Technologies). Cell cultures were harvested at the end of compound treatments and applied subjected to western blotting assay. Briefly, cells were washed with PBS and lysed with RIPA lysis buffer for 20 minutes on ice. Then lysates were centrifuged and the clear supernatant were collected. SDS loading buffer was added to the lysates and then the mixture was boiled at 100° C. for 5 minutes. Samples were loaded to 10% or 12% SDS-PAGE gel and ran at 120V for 1.5 hours. Then the proteins were transferred to PVDF membrane and blocked in 5% milk fat at room temperature for 1 hour. Then the membranes were incubated with indicated antibodies at 4° C. overnight. Membranes were washed with PBST buffer three times for 10 minutes each time and incubated with HRP-conjugated (horse radish peroxidase) secondary antibodies at room temperature for 1 hour. Again the membranes were washed with PBST buffer three times for 10 minutes each time. Finally, the indicated proteins on the membranes were visualized with ECL (enhanced chemiluminescence) reagents. MCF-7 cells were treated with DMSO or indicated compounds at 5 μM for 6 days. […] MCF-7 cells were treated with DMSO or indicated serial dilutions of compounds for 6 days. The PRMT5 protein levels were determined by Western blot.

PRMT5 substrates = test: Arginine symmetric dimethylation (SDMA Western blot) in MCF-7 cells; assay type: cell-based; conditions: MCF-7 cells (Examples 90-92)
Description: MCF-7 cells, HEK293T cells and HeLa cells were cultured in Dulbecco's Modified Eagle Medium (DMEM) supplemented with 10% fetal bovine serum (FBS) in 5% CO2 at 37° C. Jurkat cells were cultured in RPMI 1640 medium supplemented with 10% FBS in 5% CO2 at 37° C. H2171 cells were cultured in HITES medium supplemented with 10% FBS in 5% CO2 at 37° C. HCT116 were cultured in McCoy's 5A medium supplemented with 10% fetal bovine serum (FBS) in 5% CO2 at 37° C. All the cells lines were treated with 5 μM (or indicated concentration) of PRMT5 inhibitor (EPZ015666) or degraders, or equivalent volume of DMSO for 6 days (or indicated time points). Fresh compounds were constituted in medium and used for every 2 days. The antibodies used in this study are: PRMT5 antibody (Active Motif), (3-actin antibody (Sigma), SDMA antibody (collaboration with Cell Signaling Technologies). Cell cultures were harvested at the end of compound treatments and applied subjected to western blotting assay. Briefly, cells were washed with PBS and lysed with RIPA lysis buffer for 20 minutes on ice. Then lysates were centrifuged and the clear supernatant were collected. SDS loading buffer was added to the lysates and then the mixture was boiled at 100° C. for 5 minutes. Samples were loaded to 10% or 12% SDS-PAGE gel and ran at 120V for 1.5 hours. Then the proteins were transferred to PVDF membrane and blocked in 5% milk fat at room temperature for 1 hour. Then the membranes were incubated with indicated antibodies at 4° C. overnight. Membranes were washed with PBST buffer three times for 10 minutes each time and incubated with HRP-conjugated (horse radish peroxidase) secondary antibodies at room temperature for 1 hour. Again the membranes were washed with PBST buffer three times for 10 minutes each time. Finally, the indicated proteins on the membranes were visualized with ECL (enhanced chemiluminescence) reagents. MCF-7 cells were treated with EPZ015666 or YS43-22 at indicated compound concentrations (μM) for 6 days.

O=C(NC[C@H](O)CN1CCc2ccccc2C1)c1cc(NC2COC2)ncn1 [EPZ015666, reference compound]
cell growth of MCF-7 cells (MCF-7 cells): significantly inhibited | inhibition of cancer cell proliferation (cancer cells): failed to optimally inhibit | anti-proliferation effect compared with genetic PRMT5 knockdown (MTAP-deleted cells): did not lead to a similar anti-proliferation effect | PRMT5 protein levels (PRMT5; MCF-7 cells, 5 μM, 6 days, Western blot): no effect

Cc1ncsc1-c1ccc(CNC(=O)[C@@H]2C[C@@H](O)CN2C(=O)[C@@H](NC(=O)COCCOCCOCCOCCOCC(=O)N2CC(Nc3cc(C(=O)NC[C@H](O)CN4CCc5ccccc5C4)ncn3)C2)C(C)(C)C)cc1 [YS31-60, N-((S)-3-(3,4-dihydroisoquinolin-2(1H)-yl)-2-hydroxypropyl)-6-((1-((S)-19-((2S,4R)-4-hydroxy-2-((4-(4-methylthiazol-5-yl)benzyl)carbamoyl)pyrrolidine-1-carbonyl)-20,20-dimethyl-17-oxo-3,6,9,12,15-pentaoxa-18-azahenicosanoyl)azetidin-3-yl)amino)pyrimidine-4-carboxamide]
suppressing PRMT5 activity (PRMT5 substrates): especially effective | suppressing PRMT5 expression (PRMT5): especially effective

Cc1ncsc1-c1ccc(CNC(=O)[C@@H]2C[C@@H](O)CN2C(=O)[C@@H](NC(=O)CCOCCOCCOCCOCCOCCC(=O)N2CC(Nc3cc(C(=O)NC[C@H](O)CN4CCc5ccccc5C4)ncn3)C2)C(C)(C)C)cc1 [YS43-16, N-((S)-3-(3,4-dihydroisoquinolin-2(1H)-yl)-2-hydroxypropyl)-6-((1-((S)-21-((2S,4R)-4-hydroxy-2-((4-(4-methylthiazol-5-yl)benzyl)carbamoyl)pyrrolidine-1-carbonyl)-22,22-dimethyl-19-oxo-4,7,10,13,16-pentaoxa-20-azatricosanoyl)azetidin-3-yl)amino)pyrimidine-4-carboxamide]
suppressing PRMT5 activity (PRMT5 substrates): especially effective | suppressing PRMT5 expression (PRMT5): especially effective

O=C1CCC(N2C(=O)c3cccc(NCCCCCCC(=O)N4CC(Nc5cc(C(=O)NC[C@H](O)CN6CCc7ccccc7C6)ncn5)C4)c3C2=O)C(=O)N1 (stereo partly drawn) [YS43-8, N-((S)-3-(3,4-dihydroisoquinolin-2(1H)-yl)-2-hydroxypropyl)-6-((1-(7-((2-(2,6-dioxopiperidin-3-yl)-1,3-dioxoisoindolin-4-yl)amino)heptanoyl)azetidin-3-yl)amino)pyrimidine-4-carboxamide]
suppressing PRMT5 activity (PRMT5 substrates): especially effective | suppressing PRMT5 expression (PRMT5): especially effective | PRMT5 protein levels, concentration and time dependence (PRMT5; MCF-7 cells, serial dilutions of compounds, 6 days, Western blot): concentration- and time-dependent
